Measured values from patent US9981909B2 (Janssen Pharmaceutica NV, priority 2008, dated 2018).
Structures can show the parent of a compound that is named as a salt.

Key:
r5-HT7 receptor = r5-HT7 receptor (Rattus norvegicus (Rat), UniProt P32305); assay: HitHunter cAMP assay, antagonist testing against 100 nM 5-CT; assay type: cell-based; details: antagonist testing, 100 nM 5-CT challenge, HEK-293 r5-HT7; read-out: R5HT7 cAMP pKb (converted)
Experimental: (§1) Receptor binding was performed using membrane fractions prepared from the HEK-293 cell line recombinantly expressing rat 5-HT7 receptors (NCBI accession NM_022938). Compound affinity for the rat 5-HT7 receptor subtype was evaluated by competitive radioligand binding assays using 5-carboxamido[^3H]tryptamine ([^3H]5-CT) (Amersham Biosciences, cat. 90000403) detection. HitHunter™ cAMP assays are in-vitro based competitive immunoassays. The assay was performed on the HEK-293 cell line stably transfected with r5-HT7 receptor. Cells were pre-incubated with test compounds for 10 minutes. For antagonist testing, the cells were then challenged with 100 nM 5-CT for 20 minutes. Cells were then lysed and cAMP measured according to manufacturers protocol (Amersham, cat. NET791250UC) or [^3H]mesulergine (Amersham, cat. TRK1041). The assay was performed on membranes prepared from HEK-293 cells stably transfected with h5-HT6. Following centrifugation, membranes were resuspended and incubated for 60 min at room temperature with 1.7 nM [^3H]LSD in the presence of increasing concentration of test compounds. Nonspecific binding was defined in the presence of 10 μM clozapine (Tocris, cat. TRK1068). Homogenized HEK-293 membranes expressing the human SERT were incubated in 50 mM Tris-HCl (pH 7.5), 120 mM NaCl, 5 mM KCl with [^3H]-citalopram (3 nM) with or without test compounds. Nonspecific binding was determined in the presence of 10 μM fluoxetine. Radioactivity readouts and Ki values were performed as previously described for r5-HT7. […] Compounds were assayed in their free form or as salts, as indicated in the Examples section above.

rat 5-HT7 receptor = rat 5-HT7 receptor (Rattus norvegicus (Rat), UniProt P32305); assay: r5-HT7 binding assay, competitive radioligand binding with [3H]5-CT
rat 5-HT7 receptor, sequence (P32305 1-435): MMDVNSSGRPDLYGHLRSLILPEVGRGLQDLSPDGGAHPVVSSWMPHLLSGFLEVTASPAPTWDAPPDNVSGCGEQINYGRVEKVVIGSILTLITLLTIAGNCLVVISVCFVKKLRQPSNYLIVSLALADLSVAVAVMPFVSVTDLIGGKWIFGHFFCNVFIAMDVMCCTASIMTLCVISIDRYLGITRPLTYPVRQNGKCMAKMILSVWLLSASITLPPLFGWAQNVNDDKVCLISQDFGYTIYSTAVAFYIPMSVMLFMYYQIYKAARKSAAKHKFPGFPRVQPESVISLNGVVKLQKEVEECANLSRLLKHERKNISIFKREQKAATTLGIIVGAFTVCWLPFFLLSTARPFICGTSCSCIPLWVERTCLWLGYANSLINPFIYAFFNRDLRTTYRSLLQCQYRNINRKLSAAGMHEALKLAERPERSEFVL
Summary of the method: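 For antagonism, cells expressing the rat receptor are pretreated with compound (10 min) and stimulated with 100 nM 5-CT (20 min). Lysates are assayed for cAMP by competitive immunoassay. Binding uses [3H]5-CT competition on HEK-293 membranes, giving Ki.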

human SERT = human SERT (Homo sapiens (Human), UniProt P31645); assay: human SERT binding assay with [3H]-citalopram on HEK-293 membranes; details: read-out: hSERT binding Ki
human SERT, sequence (P31645 whole entry): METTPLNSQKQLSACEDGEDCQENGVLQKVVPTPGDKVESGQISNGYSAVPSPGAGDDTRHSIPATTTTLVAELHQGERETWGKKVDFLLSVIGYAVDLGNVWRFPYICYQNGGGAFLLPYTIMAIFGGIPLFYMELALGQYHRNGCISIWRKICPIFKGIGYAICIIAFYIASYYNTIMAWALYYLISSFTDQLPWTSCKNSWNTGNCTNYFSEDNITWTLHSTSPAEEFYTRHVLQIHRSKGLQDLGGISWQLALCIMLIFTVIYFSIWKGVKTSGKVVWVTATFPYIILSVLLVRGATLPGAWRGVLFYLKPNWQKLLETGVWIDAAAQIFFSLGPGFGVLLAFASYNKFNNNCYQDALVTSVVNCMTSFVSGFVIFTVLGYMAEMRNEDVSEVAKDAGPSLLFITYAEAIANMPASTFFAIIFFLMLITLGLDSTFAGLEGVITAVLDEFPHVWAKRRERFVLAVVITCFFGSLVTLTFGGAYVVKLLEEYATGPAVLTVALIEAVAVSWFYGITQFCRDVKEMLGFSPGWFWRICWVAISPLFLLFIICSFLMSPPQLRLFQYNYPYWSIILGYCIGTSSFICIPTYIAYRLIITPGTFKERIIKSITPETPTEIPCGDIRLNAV
Experimental: as §1

[1] = rat 5-HT7 receptor, HEK-293 membranes

r5-HT7 receptor, sequence (P32305 1-435): as the sequence (P32305 1-435) above

Row | Structure (SMILES) | Kb (r5-HT7 receptor) [nM] | Ki (rat 5-HT7 receptor; [1]) [nM] | Ki (human SERT) [nM] | Ki (rat 5-HT7 receptor; rat 5-HT7, HEK-293 membranes) [nM]
1 | Cc1ccc2c(c1)C(Oc1ccc(Br)cc1OC1CNC1)CC2 (racemic) [Example 156, (±)-3-[5-Bromo-2-(6-methyl-indan-1-yloxy)-phenoxy]-azetidine] | > 10000 | 252 | – | –
2 | CCCN1CC(Oc2cc(Br)ccc2OCc2cccc(Cl)c2)C1 [Example 4, 3-[5-Bromo-2-(3-chloro-benzyloxy)-phenoxy]-1-propyl-azetidine] | 0.631 | 8 | – | –
3 | CN1CCC(Oc2cc(Br)ccc2OCc2cccc(Cl)c2)CC1 [Example 66, 4-[5-Bromo-2-(3-chloro-benzyloxy)-phenoxy]-1-methyl-piperidine] | 50.1 | 10 | – | –
4 | Fc1ccccc1COc1ccc(Br)cc1OC1CCNCC1 [Example 67, 4-[5-Bromo-2-(2-fluoro-benzyloxy)-phenoxy]-piperidine] | 398 | 13 | – | –
5 | Fc1cccc(COc2ccc(Br)cc2OC2CCNCC2)c1 [Example 68, 4-[5-Bromo-2-(3-fluoro-benzyloxy)-phenoxy]-piperidine] | 631 | 17 | – | –
6 | CON=C(COc1ccc(Cl)cc1OC1CNC1)c1ccccc1 [Example 182, 2-[2-(Azetidin-3-yloxy)-4-chloro-phenoxy]-1-phenyl-ethanone O-methyl-oxime] | – | 76 | 514 | –
7 | CCN1CC(Oc2cc(F)ccc2OCc2cccc(Cl)c2)C1 [Example 207, 3-[2-(3-Chloro-benzyloxy)-5-fluoro-phenoxy]-1-ethyl-azetidine] | 15.8 | 20 | – | –
8 | Fc1ccc(OCc2ccc(C(F)(F)F)o2)c(OC2CNC2)c1 [Example 208, 3-[5-Fluoro-2-(5-trifluoromethyl-furan-2-ylmethoxy)-phenoxy]-azetidine] | – | 365 | 303 | –
9 | CC1(Oc2cc(Br)ccc2OCc2cccc(Cl)c2)CNC1 [Example 212, 3-[5-Bromo-2-(3-chloro-benzyloxy)-phenoxy]-3-methyl-azetidine] | – | – | 41 | 53
10 | CC(C)C1(Oc2cc(Br)ccc2OCc2cccc(Cl)c2)CNC1 [Example 214, 3-[5-Bromo-2-(3-chloro-benzyloxy)-phenoxy]-3-isopropyl-azetidine] | – | – | 1690 | 9000
11 | CC1(Oc2cc(Br)ccc2OCc2ccc(C(F)(F)F)o2)CNC1 [Example 216] | – | – | 36 | 16
12 | Clc1ccc(OC2CC(c3ccccc3)C2)c(OC2CNC2)c1 (centres unmarked) [Example 228, 3-[5-Chloro-2-(3-phenyl-cyclobutoxy)-phenoxy]-azetidine] | – | – | 72 | 9
13 | CC(C)(C)N1CC(Oc2cc(Br)ccc2OCc2cccc(F)c2)C1 [Example 229, 3-[5-Bromo-2-(3-fluoro-benzyloxy)-phenoxy]-1-tert-butyl-azetidine] | – | – | 925 | 3
14 | CC(C)(C)N1CC(Oc2cc(Cl)ccc2OCc2cccc(C(F)(F)F)c2)C1 [Example 230, 1-tert-Butyl-3-[5-chloro-2-(3-trifluoromethyl-benzyloxy)-phenoxy]-azetidine] | – | – | 1200 | 6
15 | CC(Oc1ccc(Cl)cc1OC1CN(C(C)(C)C)C1)c1cccc(C(F)(F)F)c1 (centres unmarked) [Example 231, 1-tert-Butyl-3-[5-chloro-2-[1-(3-trifluoromethyl-phenyl)-ethoxy]-phenoxy]-azetidine] | – | – | 4480 | 15
16 | FC(F)(F)c1ccc(COc2ccc(Br)cc2CC2CNC2)o1 [Example 232, 3-[5-Bromo-2-(5-trifluoromethyl-furan-2-ylmethoxy)-benzyl]-azetidine] | – | – | 1 | 3
17 | Clc1cccc(COc2ccc(Br)cc2OCC2CNC2)c1 [Example 233, 3-[5-Bromo-2-(3-chloro-benzyloxy)-phenoxymethyl]-azetidine] | – | – | 23 | 27
18 | Brc1cccc(Oc2ccc(Br)cc2OC2CNC2)c1 [Example 245, 3-[5-Bromo-2-(3-bromo-phenoxy)-phenoxy]-azetidine] | 200 | – | – | 9
19 | FC(F)(F)Oc1cccc(Oc2ccc(Br)cc2OC2CNC2)c1 [Example 253, 3-[5-Bromo-2-(3-trifluoromethoxy-phenoxy)-phenoxy]-azetidine] | 501 | – | – | 18
20 | Clc1ccc(Oc2ccc(Cl)cc2OC2CNC2)cc1 [Example 258, 3-[5-Chloro-2-(4-chloro-phenoxy)-phenoxy]-azetidine trifluoroacetate] | 501 | – | – | 23

Continued, values first:

Row | Kb (r5-HT7 receptor) [nM] | Ki (rat 5-HT7 receptor; [1]) [nM] | Ki (human SERT) [nM] | Ki (rat 5-HT7 receptor; rat 5-HT7, HEK-293 membranes) [nM] | Structure (SMILES)
21 | 31.6 | 23 | – | – | CC(Oc1ccc(Br)cc1OC1CNC1)c1cccc(C(F)(F)F)c1 (racemic) [Example 112, (±)-3-[5-Bromo-2-[1-(3-trifluoromethyl-phenyl)-ethoxy]-phenoxy]-azetidine]
22 | 31.6 | 40 | – | – | Brc1ccc(OC2CCc3ccccc32)c(OC2CNC2)c1 (racemic) [Example 151, (±)-3-[5-Bromo-2-(indan-1-yloxy)-phenoxy]-azetidine]
23 | 63.1 | 84 | – | – | Clc1ccc2c(c1)C(Oc1ccc(Br)cc1OC1CNC1)CC2 (racemic) [Example 153, (±)-3-[5-Bromo-2-(6-chloro-indan-1-yloxy)-phenoxy]-azetidine]
24 | – | 91 | 613 | – | FCC(Oc1ccc(Br)cc1OC1CNC1)c1ccccc1 (centres unmarked) [Example 142, 3-[5-Bromo-2-(2-fluoro-1-phenyl-ethoxy)-phenoxy]-azetidine]
25 | – | 16 | 95 | – | Clc1ccc(OCC2CCc3ccccc3O2)c(OC2CNC2)c1 (centres unmarked) [Example 165, 3-[5-Chloro-2-(chroman-2-ylmethoxy)-phenoxy]-azetidine]
26 | – | 7 | 234 | – | Clc1ccc(OCCOc2ccccc2)c(OC2CNC2)c1 [Example 171, 3-[5-Chloro-2-(2-phenoxy-ethoxy)-phenoxy]-azetidine]
27 | – | 11 | 4 | – | Fc1ccc2c(c1)CC(Oc1ccc(Cl)cc1OC1CNC1)C2 (centres unmarked) [Example 175, 3-[5-Chloro-2-(5-fluoro-indan-2-yloxy)-phenoxy]-azetidine]
28 | – | 24 | 75 | – | Clc1ccc2c(c1)CC(Oc1ccc(Cl)cc1OC1CNC1)C2 (centres unmarked) [Example 176, 3-[5-Chloro-2-(5-chloro-indan-2-yloxy)-phenoxy]-azetidine]
29 | – | 17 | 131 | – | COc1cccc2c1CC(Oc1ccc(Cl)cc1OC1CNC1)C2 (centres unmarked) [Example 178, 3-[5-Chloro-2-(4-methoxy-indan-2-yloxy)-phenoxy]-azetidine]
30 | – | 36 | 340 | – | FC(COc1ccc(Cl)cc1OC1CNC1)c1ccccc1 (centres unmarked) [Example 187, 3-[5-Chloro-2-(2-fluoro-2-phenyl-ethoxy)-phenoxy]-azetidine]
31 | – | 359 | 53 | – | Clc1cnc(OCc2ccccc2)c(OC2CNC2)c1 [Example 196, 3-(Azetidin-3-yloxy)-2-benzyloxy-5-chloro-pyridine]
32 | 158 | – | – | 11 | Clc1ccc(Oc2ccc(Br)cc2OC2CNC2)cc1 [Example 251, 3-[5-Bromo-2-(4-chloro-phenoxy)-phenoxy]-azetidine]
33 | 501 | – | – | 21 | Clc1cccc(Oc2ccc(Cl)cc2OC2CNC2)c1 [Example 257, 3-[5-Chloro-2-(3-chloro-phenoxy)-phenoxy]-azetidine maleate]
34 | – | – | 112 | 31 | Clc1ccc(Oc2nc3ccccc3o2)c(OC2CNC2)c1 [Example 262, 2-[2-(Azetidin-3-yloxy)-4-chloro-phenoxy]-benzooxazole]
